Data on four compounds can be found in PubChem BioAssay (NCI).

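Dose response: 5 concentrations. Exposure: 48 h. Format: 96-well plates. Endpoint: linear interpolation; highest concentration if not reached. TGI: concentration producing complete growth inhibition.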

In general, TGI refers to the concentration giving total growth inhibition. High values mean less potent growth arrest, low ones more potent growth arrest.

One assay relates to CCRF-CEM leukemia. Briefly: DTP human tumour cell line panel, 48 h.
In turn, `O=[N+]([O-])c1cc2c(c3nonc13)OCCCCO2` displayed a TGI of 4.98 µM.

The next assay relates to HCT-15 colon. Briefly: DTP human tumour cell line panel, 48 h.
Regarding `CCOC(=O)NC1CN2CCC1CC2` (stereo not drawn), the TGI is greater than 100 µM.
Same read-out and setting: the result for `CC(=C\c1ccccc1)/C=C(\C#N)C(N)=O` reads greater than 10 µM; that for `CN(C)/C=N/n1c2ccccc2c2ccccc21`, greater than 100 µM; that for `O=[N+]([O-])c1cc2c(c3nonc13)OCCCCO2`, 13.7 µM.

For another assay, the system named is U251 CNS. Description: DTP human tumour cell line panel, 48 h.
`CCOC(=O)NC1CN2CCC1CC2` (stereo not drawn) came in with a total growth inhibition concentration (TGI) greater than 100 µM.
On the same count and under the same terms, then `CC(=C\c1ccccc1)/C=C(\C#N)C(N)=O`, with greater than 10 µM.
The same measure, in the same setting: the result for `CN(C)/C=N/n1c2ccccc2c2ccccc21` reads greater than 100 µM; that for `O=[N+]([O-])c1cc2c(c3nonc13)OCCCCO2`, 45.5 µM.

The next assay has as its system MDA-MB-435. Briefly: DTP human tumour cell line panel, 48 h.
With `CCOC(=O)NC1CN2CCC1CC2` (stereo not drawn), the total growth inhibition concentration (TGI) is greater than 100 µM.
The same measure, in the same setting: the result for `CC(=C\c1ccccc1)/C=C(\C#N)C(N)=O` reads greater than 10 µM.
Still for that read-out and setting: then `CN(C)/C=N/n1c2ccccc2c2ccccc21`, with greater than 100 µM; and `O=[N+]([O-])c1cc2c(c3nonc13)OCCCCO2`, with 17.9 µM.

For a further assay, the system named is NCI-H226 lung. Briefly: DTP human tumour cell line panel, 48 h.
For `CCOC(=O)NC1CN2CCC1CC2` (stereo not drawn), the TGI was greater than 100 µM.
`CC(=C\c1ccccc1)/C=C(\C#N)C(N)=O`: the TGI was greater than 10 µM.
On the same count and under the same terms, the result for `CN(C)/C=N/n1c2ccccc2c2ccccc21` reads greater than 100 µM; that for `O=[N+]([O-])c1cc2c(c3nonc13)OCCCCO2`, 28.2 µM.

In another assay the test system is OVCAR-5 ovarian. Description: DTP human tumour cell line panel, 48 h.
Compound `CCOC(=O)NC1CN2CCC1CC2` (stereo not drawn) came in with a TGI greater than 100 µM.
The same measure, in the same setting: then `CC(=C\c1ccccc1)/C=C(\C#N)C(N)=O`, with greater than 10 µM.
The same measure, in the same setting: the result for `CN(C)/C=N/n1c2ccccc2c2ccccc21` reads greater than 100 µM; that for `O=[N+]([O-])c1cc2c(c3nonc13)OCCCCO2`, 26.2 µM.

A further assay has as its system SF-268 CNS. Briefly: DTP human tumour cell line panel, 48 h.
Compound `CCOC(=O)NC1CN2CCC1CC2` (stereo not drawn) returned a TGI greater than 100 µM.
The same measure, in the same setting: then `CC(=C\c1ccccc1)/C=C(\C#N)C(N)=O`, with greater than 10 µM; and `CN(C)/C=N/n1c2ccccc2c2ccccc21`, with greater than 100 µM.
Still for that read-out and setting: the result for `O=[N+]([O-])c1cc2c(c3nonc13)OCCCCO2` reads 27.3 µM.

For a further assay, the system named is TK-10 renal. Description: DTP human tumour cell line panel, 48 h.
With `CC(=C\c1ccccc1)/C=C(\C#N)C(N)=O`, the TGI is greater than 10 µM.
The same measure, in the same setting: the result for `CN(C)/C=N/n1c2ccccc2c2ccccc21` reads greater than 100 µM; that for `O=[N+]([O-])c1cc2c(c3nonc13)OCCCCO2`, 93.7 µM.

The next assay concerns SNB-75 CNS. Description: DTP human tumour cell line panel, 48 h.
Compound `CCOC(=O)NC1CN2CCC1CC2` (stereo not drawn) yielded a TGI greater than 100 µM.
`CC(=C\c1ccccc1)/C=C(\C#N)C(N)=O`: the TGI was greater than 10 µM.
Same read-out and setting: then `CN(C)/C=N/n1c2ccccc2c2ccccc21`, with greater than 100 µM; and `O=[N+]([O-])c1cc2c(c3nonc13)OCCCCO2`, with 22.7 µM.

The test system of another assay is SF-295 CNS. Briefly: DTP human tumour cell line panel, 48 h.
As for `CCOC(=O)NC1CN2CCC1CC2` (stereo not drawn), the TGI is greater than 100 µM.
Still for that read-out and setting: the result for `CC(=C\c1ccccc1)/C=C(\C#N)C(N)=O` reads greater than 10 µM; that for `CN(C)/C=N/n1c2ccccc2c2ccccc21`, greater than 100 µM.
On the same count and under the same terms, the result for `O=[N+]([O-])c1cc2c(c3nonc13)OCCCCO2` reads 31.6 µM.

The test system of another assay is M14 melanoma. Description: DTP human tumour cell line panel, 48 h.
Consider `CCOC(=O)NC1CN2CCC1CC2` (stereo not drawn), for which the TGI was greater than 100 µM.
Same read-out and setting: then `CC(=C\c1ccccc1)/C=C(\C#N)C(N)=O`, with greater than 10 µM; and `CN(C)/C=N/n1c2ccccc2c2ccccc21`, with greater than 100 µM; and `O=[N+]([O-])c1cc2c(c3nonc13)OCCCCO2`, with 17.9 µM.

The next assay concerns SK-OV-3 ovarian. Description: DTP human tumour cell line panel, 48 h.
Compound `CCOC(=O)NC1CN2CCC1CC2` (stereo not drawn) displayed a TGI greater than 100 µM.
Still for that read-out and setting: the result for `CC(=C\c1ccccc1)/C=C(\C#N)C(N)=O` reads greater than 10 µM; that for `CN(C)/C=N/n1c2ccccc2c2ccccc21`, greater than 100 µM.
Compound `O=[N+]([O-])c1cc2c(c3nonc13)OCCCCO2` showed a TGI of 65 µM.

The test system of a further assay is ACHN renal. Briefly: DTP human tumour cell line panel, 48 h.
In the case of `CCOC(=O)NC1CN2CCC1CC2` (stereo not drawn), the total growth inhibition concentration (TGI) was greater than 100 µM.
On the same count and under the same terms, then `CC(=C\c1ccccc1)/C=C(\C#N)C(N)=O`, with greater than 10 µM; and `CN(C)/C=N/n1c2ccccc2c2ccccc21`, with greater than 100 µM; and `O=[N+]([O-])c1cc2c(c3nonc13)OCCCCO2`, with 19.6 µM.

The next assay has as its system OVCAR-3 ovarian. Briefly: DTP human tumour cell line panel, 48 h.
With `CCOC(=O)NC1CN2CCC1CC2` (stereo not drawn), the total growth inhibition concentration (TGI) was greater than 100 µM.
Same read-out and setting: then `CC(=C\c1ccccc1)/C=C(\C#N)C(N)=O`, with greater than 10 µM.
Same read-out and setting: the result for `CN(C)/C=N/n1c2ccccc2c2ccccc21` reads greater than 100 µM; that for `O=[N+]([O-])c1cc2c(c3nonc13)OCCCCO2`, 7.53 µM.

The next assay concerns NCI-H23 lung. Description: DTP human tumour cell line panel, 48 h.
`CCOC(=O)NC1CN2CCC1CC2` (stereo not drawn): the concentration for total growth inhibition (TGI) was greater than 100 µM.
